For 12 compounds, Activity, IC50 and inhibition results are on record in ChEMBL document CHEMBL1138920, “Putative therapeutic agents for the learning and memory deficits of people with Down syndrome” (Bioorg Med Chem Lett, 2006).

Active and inactive are the calls of the source. The rule behind the calls is not given here.

Experiment [1] concerns the target Tyrosine-protein kinase Lck (Homo sapiens) (UniProt P06239). Briefly: Activity against Lck at 10 uM in the presence of 100 uM ATP relative to control.
Experiment [2] deals with T1, Dual specificity tyrosine-phosphorylation-regulated kinase 2 (Homo sapiens) (UniProt Q92630).
T1 sequence (whole entry): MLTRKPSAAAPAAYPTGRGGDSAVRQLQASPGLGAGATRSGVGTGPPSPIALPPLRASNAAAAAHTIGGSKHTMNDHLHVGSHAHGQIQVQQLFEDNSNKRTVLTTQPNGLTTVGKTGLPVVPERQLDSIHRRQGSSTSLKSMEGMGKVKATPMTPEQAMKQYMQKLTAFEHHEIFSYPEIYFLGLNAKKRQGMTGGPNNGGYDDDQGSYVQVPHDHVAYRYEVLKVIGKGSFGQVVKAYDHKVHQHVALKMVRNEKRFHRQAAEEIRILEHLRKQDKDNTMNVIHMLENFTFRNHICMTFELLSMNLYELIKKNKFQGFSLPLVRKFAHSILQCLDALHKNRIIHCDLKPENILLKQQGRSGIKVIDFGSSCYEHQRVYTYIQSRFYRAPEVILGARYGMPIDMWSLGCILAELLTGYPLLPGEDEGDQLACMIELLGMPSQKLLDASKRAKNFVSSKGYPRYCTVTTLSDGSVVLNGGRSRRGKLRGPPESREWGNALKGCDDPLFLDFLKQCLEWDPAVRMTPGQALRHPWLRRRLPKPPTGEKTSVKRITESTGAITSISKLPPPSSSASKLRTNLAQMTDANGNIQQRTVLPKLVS
Briefly: Activity against DYRK2 at 10 uM in the presence of 100 uM ATP relative to control.

Experiment [3] deals with CaM kinase II (Homo sapiens) (UniProt Q13557+Q13555+Q13554+Q9UQM7). Put plainly: Activity against CaMK2 at 10 uM in the presence of 100 uM ATP relative to control. Format: protein assay.
Experiment [4] addresses cAMP-dependent protein kinase (PKA) (Homo sapiens) (UniProt P22694+P17612+P22612). Put plainly: Activity against PKA at 10 uM in the presence of 100 uM ATP relative to control. It counts as protein assay.
Experiment [5] concerns the target Mitogen-activated protein kinase 10 (Homo sapiens) (UniProt P53779). Put plainly: Activity against JNK3 at 10 uM in the presence of 100 uM ATP relative to control.
The target in experiment [6] is Dual specificity tyrosine-phosphorylation-regulated kinase 1A (Mus musculus, UniProt Q61214). Put plainly: Inhibition of mouse Dyrk1A autophosphorylation in HEk293 cells. It counts as cell-based.
The target in experiment [7] is T2, MAP kinase-activated protein kinase 5 (Homo sapiens) (UniProt Q8IW41).
T2 sequence (whole entry): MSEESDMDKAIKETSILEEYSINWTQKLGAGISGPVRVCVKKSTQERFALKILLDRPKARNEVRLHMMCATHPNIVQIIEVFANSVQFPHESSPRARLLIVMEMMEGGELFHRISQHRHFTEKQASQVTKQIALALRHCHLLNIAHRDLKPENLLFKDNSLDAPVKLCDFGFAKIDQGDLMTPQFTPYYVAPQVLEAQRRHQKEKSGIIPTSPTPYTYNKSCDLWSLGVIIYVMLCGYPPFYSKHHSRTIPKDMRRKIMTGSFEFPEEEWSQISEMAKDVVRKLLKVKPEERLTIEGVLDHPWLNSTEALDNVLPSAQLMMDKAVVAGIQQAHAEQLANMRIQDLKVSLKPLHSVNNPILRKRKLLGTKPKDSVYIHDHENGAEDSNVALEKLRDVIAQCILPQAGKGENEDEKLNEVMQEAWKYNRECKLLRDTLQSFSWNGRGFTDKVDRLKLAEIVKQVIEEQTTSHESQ
Put plainly: Activity against PRAK at 10 uM in the presence of 100 uM ATP relative to control.

Experiment [8] concerns the target Glycogen synthase kinase-3 beta (Homo sapiens) (UniProt P49841). Put plainly: Activity against GSK3-beta at 10 uM in the presence of 100 uM ATP relative to control.
Experiment [9] addresses Protein kinase C alpha type (Homo sapiens) (UniProt P17252). Put plainly: Activity against PKCalpha at 10 uM in the presence of 100 uM ATP relative to control.
The target in experiment [10] is Dual specificity protein kinase CLK3 (Homo sapiens) (UniProt P49761). Briefly: Activity against CLK3 at 10 uM in the presence of 100 uM ATP relative to control.
Experiment [11] concerns the target Mitogen-activated protein kinase 1 (Homo sapiens) (UniProt P28482). Put plainly: Activity against MAPK2 at 10 uM in the presence of 100 uM ATP relative to control.
Experiment [12] concerns the target Cyclin-dependent kinase 2/cyclin A (Homo sapiens) (UniProt P24941+P20248+P78396). Briefly: Activity against CDK2/cyclinA at 10 uM in the presence of 100 uM ATP relative to control. Format: protein-complex assay.
In experiment [13] the target is Mitogen-activated protein kinase 14 (Homo sapiens) (UniProt Q16539). Put plainly: Activity against SAPK2-alpha at 10 uM in the presence of 100 uM ATP relative to control.
Experiment [14] has as its target Casein kinase II (Homo sapiens) (UniProt P67870+P68400+P19784). Put plainly: Activity against CK2 at 10 uM in the presence of 100 uM ATP relative to control. It counts as protein-complex assay.
The target of experiment [15] is Cyclin-dependent kinase 5/CDK5 activator 1 (Homo sapiens) (UniProt Q00535+Q15078). Briefly: Activity against CDK5/p35 at 10 uM in the presence of 100 uM ATP relative to control. Format: protein-complex assay.
In experiment [16] the target is Tyrosine-protein kinase ABL1 (Homo sapiens) (UniProt P00519). Briefly: Activity against Abl at 10 uM in the presence of 100 uM ATP relative to control.
For experiment [17], the target named is Dual specificity tyrosine-phosphorylation-regulated kinase 1A (Mus musculus) (UniProt Q61214). Put plainly: Inhibition of mouse Dyrk1A autophosphorylation in HEk293 cells at 10 uM. Format: cell-based.

Mitogen-activated protein kinase 10 (Homo sapiens), sequence (P53779 whole entry): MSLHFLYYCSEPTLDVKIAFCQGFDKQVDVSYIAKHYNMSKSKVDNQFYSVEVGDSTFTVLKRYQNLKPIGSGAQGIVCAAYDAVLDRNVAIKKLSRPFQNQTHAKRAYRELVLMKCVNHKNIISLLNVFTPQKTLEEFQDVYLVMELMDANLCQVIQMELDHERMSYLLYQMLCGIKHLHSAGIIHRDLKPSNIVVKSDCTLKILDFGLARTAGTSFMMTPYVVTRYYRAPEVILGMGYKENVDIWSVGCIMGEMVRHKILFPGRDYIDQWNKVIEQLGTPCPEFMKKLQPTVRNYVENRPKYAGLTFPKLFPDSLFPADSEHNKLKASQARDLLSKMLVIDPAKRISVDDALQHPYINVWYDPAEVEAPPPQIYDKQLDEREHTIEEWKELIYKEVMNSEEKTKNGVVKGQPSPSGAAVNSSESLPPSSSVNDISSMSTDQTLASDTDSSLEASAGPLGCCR
Cyclin-dependent kinase 5/CDK5 activator 1 (Homo sapiens), sequence (Q00535 whole entry): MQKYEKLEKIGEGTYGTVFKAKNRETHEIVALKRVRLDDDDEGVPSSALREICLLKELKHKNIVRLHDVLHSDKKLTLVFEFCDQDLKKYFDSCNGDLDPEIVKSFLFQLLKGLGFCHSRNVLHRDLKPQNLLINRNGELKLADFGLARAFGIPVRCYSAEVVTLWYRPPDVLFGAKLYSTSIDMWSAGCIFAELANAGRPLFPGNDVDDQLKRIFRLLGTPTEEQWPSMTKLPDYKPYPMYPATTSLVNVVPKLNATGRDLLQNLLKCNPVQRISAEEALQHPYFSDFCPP
Cyclin-dependent kinase 5/CDK5 activator 1 (Homo sapiens), sequence (Q15078 99-307 partner limits assumed): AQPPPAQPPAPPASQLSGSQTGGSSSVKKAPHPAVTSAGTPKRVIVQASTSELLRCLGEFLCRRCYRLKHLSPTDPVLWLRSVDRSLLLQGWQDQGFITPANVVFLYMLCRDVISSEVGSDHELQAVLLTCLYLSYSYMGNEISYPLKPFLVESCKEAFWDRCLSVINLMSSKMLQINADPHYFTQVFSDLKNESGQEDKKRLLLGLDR
Glycogen synthase kinase-3 beta (Homo sapiens), sequence (P49841 whole entry, looked up): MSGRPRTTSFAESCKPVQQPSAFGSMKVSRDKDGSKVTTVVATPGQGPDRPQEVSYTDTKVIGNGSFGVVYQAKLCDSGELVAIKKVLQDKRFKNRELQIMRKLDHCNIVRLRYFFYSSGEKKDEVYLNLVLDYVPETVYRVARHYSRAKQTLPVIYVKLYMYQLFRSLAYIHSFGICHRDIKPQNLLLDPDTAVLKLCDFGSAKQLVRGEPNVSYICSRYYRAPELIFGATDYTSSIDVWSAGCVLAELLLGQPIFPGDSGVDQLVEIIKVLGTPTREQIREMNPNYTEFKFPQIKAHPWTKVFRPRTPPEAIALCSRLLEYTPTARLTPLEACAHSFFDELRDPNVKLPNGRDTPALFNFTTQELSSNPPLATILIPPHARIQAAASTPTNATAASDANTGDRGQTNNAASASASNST
Dual specificity protein kinase CLK3 (Homo sapiens), sequence (P49761 whole entry, looked up): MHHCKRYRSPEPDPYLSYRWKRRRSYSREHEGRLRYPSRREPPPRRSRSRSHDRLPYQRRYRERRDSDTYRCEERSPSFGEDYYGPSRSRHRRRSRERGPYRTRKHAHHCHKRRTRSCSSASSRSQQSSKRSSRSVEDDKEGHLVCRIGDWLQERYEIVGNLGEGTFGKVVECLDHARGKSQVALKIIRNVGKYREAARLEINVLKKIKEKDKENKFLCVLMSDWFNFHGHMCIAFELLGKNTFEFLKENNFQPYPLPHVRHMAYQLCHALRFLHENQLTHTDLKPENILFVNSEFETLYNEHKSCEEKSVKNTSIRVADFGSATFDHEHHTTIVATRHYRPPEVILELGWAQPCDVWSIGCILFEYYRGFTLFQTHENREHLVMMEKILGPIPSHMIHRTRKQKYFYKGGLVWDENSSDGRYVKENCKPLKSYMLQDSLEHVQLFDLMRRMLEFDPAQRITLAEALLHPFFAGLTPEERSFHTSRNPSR
Tyrosine-protein kinase ABL1 (Homo sapiens), sequence (P00519 whole entry): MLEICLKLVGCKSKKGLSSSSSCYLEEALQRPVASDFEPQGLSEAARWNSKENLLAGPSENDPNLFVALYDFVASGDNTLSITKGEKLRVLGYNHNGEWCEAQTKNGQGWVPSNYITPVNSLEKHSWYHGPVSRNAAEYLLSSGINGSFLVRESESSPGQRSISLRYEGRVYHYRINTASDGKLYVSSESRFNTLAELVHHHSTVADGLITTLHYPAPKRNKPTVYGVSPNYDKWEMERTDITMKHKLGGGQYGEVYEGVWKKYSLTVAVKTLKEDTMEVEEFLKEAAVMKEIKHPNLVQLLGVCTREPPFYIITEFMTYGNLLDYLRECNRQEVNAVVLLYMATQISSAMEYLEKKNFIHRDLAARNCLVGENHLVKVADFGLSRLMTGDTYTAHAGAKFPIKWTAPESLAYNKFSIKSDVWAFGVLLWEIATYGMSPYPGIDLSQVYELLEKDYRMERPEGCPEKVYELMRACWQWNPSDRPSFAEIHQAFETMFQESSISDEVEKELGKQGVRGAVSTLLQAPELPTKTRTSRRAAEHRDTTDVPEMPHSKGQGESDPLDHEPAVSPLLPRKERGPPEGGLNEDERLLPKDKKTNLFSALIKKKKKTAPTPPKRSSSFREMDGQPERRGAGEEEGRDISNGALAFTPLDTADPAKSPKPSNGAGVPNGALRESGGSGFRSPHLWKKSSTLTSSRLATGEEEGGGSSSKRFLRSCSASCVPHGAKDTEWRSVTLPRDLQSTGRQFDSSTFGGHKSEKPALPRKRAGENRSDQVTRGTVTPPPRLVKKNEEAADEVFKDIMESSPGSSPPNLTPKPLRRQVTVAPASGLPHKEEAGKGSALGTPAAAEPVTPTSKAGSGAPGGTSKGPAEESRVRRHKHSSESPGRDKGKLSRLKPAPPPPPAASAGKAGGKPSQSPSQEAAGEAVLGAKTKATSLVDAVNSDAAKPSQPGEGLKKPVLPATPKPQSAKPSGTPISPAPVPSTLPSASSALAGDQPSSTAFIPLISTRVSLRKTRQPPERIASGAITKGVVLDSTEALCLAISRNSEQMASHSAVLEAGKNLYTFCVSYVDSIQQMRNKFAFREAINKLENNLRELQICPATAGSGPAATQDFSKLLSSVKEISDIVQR
Tyrosine-protein kinase Lck (Homo sapiens), sequence (P06239 2-509 limits assumed): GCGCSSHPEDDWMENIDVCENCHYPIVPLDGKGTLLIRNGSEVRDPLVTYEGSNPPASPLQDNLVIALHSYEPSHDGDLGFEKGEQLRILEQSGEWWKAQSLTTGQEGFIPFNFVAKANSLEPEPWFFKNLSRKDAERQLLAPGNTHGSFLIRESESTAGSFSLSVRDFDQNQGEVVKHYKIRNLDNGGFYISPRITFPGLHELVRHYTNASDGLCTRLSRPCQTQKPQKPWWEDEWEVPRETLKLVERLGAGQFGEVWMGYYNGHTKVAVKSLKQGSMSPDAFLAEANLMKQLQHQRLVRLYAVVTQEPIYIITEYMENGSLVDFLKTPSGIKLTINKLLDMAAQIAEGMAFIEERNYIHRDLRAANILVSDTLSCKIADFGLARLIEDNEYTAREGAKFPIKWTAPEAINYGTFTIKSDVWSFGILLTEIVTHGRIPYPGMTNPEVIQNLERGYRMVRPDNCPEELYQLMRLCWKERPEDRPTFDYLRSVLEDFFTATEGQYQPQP
Mitogen-activated protein kinase 1 (Homo sapiens), sequence (P28482 whole entry): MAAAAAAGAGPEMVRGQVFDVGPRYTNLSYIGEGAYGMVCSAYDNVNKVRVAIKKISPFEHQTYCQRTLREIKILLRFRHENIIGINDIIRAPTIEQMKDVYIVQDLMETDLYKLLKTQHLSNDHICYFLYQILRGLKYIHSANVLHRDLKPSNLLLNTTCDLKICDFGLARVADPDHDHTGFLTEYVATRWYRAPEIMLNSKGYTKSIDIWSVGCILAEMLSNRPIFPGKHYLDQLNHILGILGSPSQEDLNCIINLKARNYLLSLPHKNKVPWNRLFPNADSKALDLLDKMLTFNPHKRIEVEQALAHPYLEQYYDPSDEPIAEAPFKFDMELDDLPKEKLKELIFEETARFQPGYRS
Mitogen-activated protein kinase 14 (Homo sapiens), sequence (Q16539 whole entry): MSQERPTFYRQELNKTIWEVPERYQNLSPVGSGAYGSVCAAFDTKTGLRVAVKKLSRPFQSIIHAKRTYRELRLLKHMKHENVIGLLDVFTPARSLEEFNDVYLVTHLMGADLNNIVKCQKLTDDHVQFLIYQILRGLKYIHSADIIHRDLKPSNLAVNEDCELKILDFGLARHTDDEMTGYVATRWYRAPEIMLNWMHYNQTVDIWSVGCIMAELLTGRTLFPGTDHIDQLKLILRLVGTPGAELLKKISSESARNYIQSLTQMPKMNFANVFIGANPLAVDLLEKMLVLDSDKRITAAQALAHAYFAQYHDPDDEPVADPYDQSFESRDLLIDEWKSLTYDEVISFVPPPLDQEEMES

As to `COc1cccc(NC(=O)Nc2nnc(-c3ccncc3)s2)c1`, the Activity in experiment [1] amounted to 113%; in [2], 77%; in experiment [3], 98%; in experiment [4], 104%; in [5], 98%; in experiment [7], 69%. The Activity was determined as 47% in [8]; 83% in [9]; 11% in experiment [10]; 138% in experiment [11]; 96% in [12]; 101% in experiment [13]. Moreover, the results for the Activity in [14], in experiment [15] and in experiment [16] were 110%, 104% and 96%, respectively. The IC50 in experiment [6] is 5 µM. In experiment [17], this compound registered an inhibition of 41%.

In the case of `CCOC(=O)c1ccc2ncc(C(=O)OCC)c(Nc3ccc(NC(C)=O)cc3)c2c1`, the IC50 in [6] is 10 µM. Moreover, the inhibition in [17] stood at 52%.

Take `COc1ccc(O)c(-c2cc(-c3ccccc3Cl)[nH]n2)c1`: in experiment [17], the inhibition came out at 43%.

Regarding `COc1ccc(O)c(-c2cc(-c3ccccc3Cl)n[nH]2)c1`, the IC50 in experiment [6] came to 20 µM.

For `CN1C(=O)/C(=C2\SC(Nc3ccc(F)cc3)=NC2=O)c2ccccc21`, the IC50 in experiment [6] is 50 µM. In [17], this compound came in with an inhibition of 12%.

As to `CCOC(=O)c1ccc2ncc(C(=O)OCC)c(Nc3ccc(C)c(Br)c3)c2c1`, half-maximal inhibition in experiment [6] (IC50) was put at 50 µM. Moreover, the inhibition in experiment [17] was 13%.

For `Cc1cccc(Nc2nc(-c3c(C)nc4ncccn34)cs2)c1`, the IC50 in experiment [6] was greater than 50 µM. Besides, the inhibition in experiment [17] was determined as 25%.

Regarding `COc1cc(/C=C2\C(=O)NN(c3ccc(Cl)c(Cl)c3)C2=O)ccc1O`, the Activity in experiment [1] stood at 105%; in experiment [2], 59%; in experiment [3], 72%; in [4], 107%; in experiment [5], 86%; in [7], 71%. The Activity in experiment [8] stood at 69%; in experiment [9] it was 78%; in [10], 36%; in [11], 122%; in [12], 90%; in [13] it was 112%. The Activity turned out to be 61% in experiment [14], 99% in [15] and 94% in experiment [16]. Besides, the IC50 in experiment [6] stood at 2.5 µM. Also, the inhibition in [17] was found to be 82%.

For `C=CCOc1ccc(Br)cc1/C=C1\SC(Nc2ccc(Cl)c(C(=O)O)c2)=NC1=O`, the IC50 in experiment [6] stood at 20 µM. Further, the inhibition result in experiment [17] is “inactive”.

In the case of `Brc1ccc(Nc2nc(NCc3ccco3)c3ccccc3n2)cc1`, the midpoint of inhibition in experiment [6], the IC50, lay at 5 µM. The inhibition in experiment [17] was 8%.

As to `CCOC(=O)c1cnc2ccc(C(=O)OC)cc2c1Nc1cccc(C(C)=O)c1`, in experiment [6], the IC50 turned out to be 50 µM. For the same compound, in experiment [17], the inhibition is 51%.

In experiment [6], `COc1cc(/C=C2\C(=O)NN(c3cccc(Cl)c3)C2=O)ccc1O` yielded an IC50 greater than 50 µM. Further, in experiment [17], the inhibition stood at 74%.
